In article PMC12138128 (Acta Pharmaceutica Sinica. B, 2025):

Legend:
U87 cells = experiment: CCK-8 cell proliferation assay, U87; format: cell-based; details: Homo sapiens, U-87 MG, 72 h, CCK-8, 72 h; read-out: IC50, U87 proliferation inhibition
Protocol: The effects on cell proliferation were measured using a CCK-8 assay kit. A total of 3 × 10^3 cells were seeded per well in 96-well plates and incubated for 24, 48, or 72 h after drug administration. After 10 μL of CCK-8 solution was added to each well and incubated at 37 °C for 1–2 h, the absorbance at OD450 was read with an enzyme marker. The data were recorded and analyzed by GraphPad Prism software (version 8.0.2). For the cell growth assay, 2 × 10^3 cells were seeded per well in 96-well plates (n = 5). Ten microlitres of CCK-8 reagent was added at a fixed time every day, and the OD450 was read after 2 h. The statistical data were analyzed, and cell growth curves were plotted after a continuous period of 7 days.

[1] = cited from earlier work
NAD^+ in U87 cells = experiment: Measurement of NAD+ levels in U87 cells; format: cell-based, human; details: 10 nmol/L, compared with PF403
From the text: NAD^+ is a coenzyme found in all cells and consists of both NAD^+ (oxidized) and NADH (reduced) forms. NAD^+ can be used to transfer electrons during redox reactions and as a substrate used by many enzymes to participate in intracellular reactions. We used an NAD^+/NADH assay kit (Beyotime, S0175, Shanghai, China) based on the WST-8 method to determine the NAD^+/NADH content. Cells in 6-well plates were collected and lysed with NAD^+/NADH extract on ice, and the supernatant was used as the sample to be tested. A control solution with a gradient concentration of NADH was prepared with a 10 mmol/L NADH standard. The supernatant from the sample was first aspirated and used to determine the total amount of NAD^+ and NADH. Subsequently, the sample was heated at 60 °C for 30 min to remove the NAD^+, after which the supernatant was collected to determine the NADH concentration. Ethanol dehydrogenase was added to each well, and the plate was incubated at 37 °C in the dark for 10 min. Then, 10 μL of chromogenic solution was added, and the plate was incubated for 30 min. Afterward, the absorbance at 450 nm was measured, and the content was calculated by comparison with the standard curve. The content of NAD^+ was calculated by subtracting the content of NADH from the total amount.

U87 xenograft = U87 xenograft model in nude mice; format: in vivo, nude mice (BALB/c-nude); details: for inhibitory effect in terms of tumor weight / inhibitory effect based on tumor volume: i.g.; for inhibitory effect in terms of tumor weight: 14th day; for inhibitory effect based on tumor volume: daily for 14 days
Protocol: (§1) Six-week-old female athymic nude mice (BALB/c-nude) were obtained from GemPharmatech (Beijing, China). U87 cells (3 × 10^6 cells per animal) were injected into the rear right armpit of nude mice to generate xenograft tumors. Seven to ten days after injection, the tumors were visible to the naked eye (approximately 100 mm^3), and the mice were randomized into five groups (12 mice per group). The PF403 treatment groups were administered different doses of PF403 once daily via intragastric gavage (low dose, 3 mg/kg; median dose, 6 mg/kg; high dose, 12 mg/kg). The positive control drug used was temozolomide (50 mg/kg, i.g., Days 1–5), the first line of glioma treatment, while the control group was treated with 0.5% CMC-Na solution as a control. To validate the NAMPT knockdown group, we established the following groups: a control group (vehicle control, i.g., once daily, n = 12), a shNAMPT-2 knockdown group (vehicle control, i.g., once daily, n = 12), and a shNAMPT-2 knockdown group treated with CAT3 (6 mg/kg, i.g., once daily, n = 12). The body weights of the nude mice were recorded every two days, and the tumor weights were recorded on the 14th day after the mice were sacrificed.
(§2) IHC was performed following standard protocols. Briefly, the standard protocol for Ki67 immunohistochemical staining involved tissue preparation, deparaffinization and rehydration, antigen retrieval, blocking, primary and secondary antibody incubations, visualization with DAB, counterstaining, mounting, microscopic examination, and image acquisition. To assess proliferation rates in tissue samples, the area of Ki67 expression was used for comparison in each group.

shNAMPT-2 U87 xenograft = experiment: shNAMPT-2 U87 (NAMPT-knockdown) xenograft model; format: in vivo, nude mice (BALB/c-nude)
Protocol: as §1, §2

[2] = tested on: shNAMPT-2 U87 orthotopic glioma; experiment: Orthotopic glioma model with shNAMPT-2 U87 cells, MRI; format: in vivo, nude mice (BALB/c-nude)
Protocol: For the orthotopic glioma model, six-week-old female athymic nude mice (BALB/c-nude) were obtained from GemPharmatech (Beijing, China). Anesthetize nude mice with tribromoethanol at a concentration of 20 mg/mL and a dosage of 0.2 mL/10 g body weight. U87 cells (shNAMPT-2, 5 × 10^5 cells) suspended in 5 μL PBS buffer were injected intracranially into nude mice using stereotaxic restraint. The location was bregma +1.0 mm, right lateral 2.0 mm, profundity 3.5 mm, and return to 3.0 mm. After 3 days, 6 mg/kg of CAT3 was orally administered once daily for 11 days. Intracranial tumors were viewed using MRI. The body weights of mice were monitored once every 2 or 3 days. The feeding and handling of animals have been approved by the Animal Care & Welfare Committee Institute of Materia Medica, CAMS & PUMC (Approval numbers: 00008485, 00008487, 00008963).
After 11 days of treatment, anatomical images of the intracranial tumor were acquired using an MRI scanner (PharmaScan 70/16 US, Bruker, Switzerland) on the nude mice. The parameters used in the scans to optimize gray/white matter contrast were as follows: a T2_TurboRARE, with TR/TE = 2795/35, 4 averages, 22 × 22 field-of-view, and 0.5 mm slice thickness. The scanning of all brains was completed in 25 sessions. The tumor volume was calculated using the sum of the areas in all images multiplied by the thickness of each slice (0.5 mm).

U87 orthotopic glioma = tested on: U87 orthotopic glioma; set-up: method as in PMID 27495899; details: 6 mg/kg, 11 days of continuous treatment; cited from earlier work

COc1ccc2c3c(c4cc(OC)c(OC)cc4c2c1)CN1CCC[C@H]1C3 [CAT, (+)-Deoxytylophorinine]
IC50 (U87 cells): 23.4 nM
blood–brain barrier penetration [1]: effectively cross the blood–brain barrier

O=C(/C=C/c1cccnc1)NCCCCC1CCN(C(=O)c2ccccc2)CC1 [FK866, (E)-Daporinad]
inhibitory effect on intracellular NAD^+ content (NAD^+ in U87 cells): better inhibitory effect on intracellular NAD^+ content than PF403

(13aS)-3-pivaloyloxyl-6,7-dimethoxyphenanthro[9,10-b] indolizidine [CAT3]
inhibitory effect in terms of tumor weight (U87 xenograft; 6 mg/kg): 55.37%
inhibitory effect based on tumor volume (U87 xenograft; 6 mg/kg): ~58.41%
inhibitory effect in terms of tumor weight (U87 xenograft; 12 mg/kg): 63.18%
inhibitory effect based on tumor volume (U87 xenograft; 12 mg/kg): ~67.59%
expression of Ki67 in tumor (IHC) (U87 xenograft; after treatment, U87 xenograft): reduced
body weight of the nude mice (U87 xenograft; due to gastrointestinal reaction): decreased slightly in the first week and then gradually recovered
inhibitory effect on cell proliferation by tumor volume or weight (shNAMPT-2 U87 xenograft; 6 mg/kg, i.g., daily for 14 days): no significant inhibitory effect
expression of Ki67 in tumor (IHC) (shNAMPT-2 U87 xenograft; effective dose (6 mg/kg), NAMPT-knockdown xenograft): not affected
body weight (shNAMPT-2 U87 xenograft; over 14 days, gastrointestinal side effects): slight decrease in body weight
body weight of nude mice ([2]; early and middle stages of treatment): slight decrease in the body weight
NAMPT knockdown tumor volume (MRI) ([2]; treatment group, 6 mg/kg orally once daily for 11 days, n = 12): 24.05 ± 13.99 mm^3
inhibitory effect, orthotopic glioma model (U87 orthotopic glioma): ~40%
